From patent US20220235065A1 (Epizyme, Inc., priority 2016, published 2022)
Counter-ions that a name gives are not always drawn.

target: T1, recombinant purified human EHMT2 913-1193 (Homo sapiens, UniProt Q96KQ7); experiment: EHMT2 enzyme assay on histone peptide substrate (3H-SAM Flashplate); assay type: biochemical; settings: read-out: EHMT2 PEP (IC50 μM)
T1 construct: Recombinant purified human EHMT2 913-1193 (55 μM) synthesized by Viva was used for all experiments; purchased Viva
T1 sequence (Q96KQ7 913-1193): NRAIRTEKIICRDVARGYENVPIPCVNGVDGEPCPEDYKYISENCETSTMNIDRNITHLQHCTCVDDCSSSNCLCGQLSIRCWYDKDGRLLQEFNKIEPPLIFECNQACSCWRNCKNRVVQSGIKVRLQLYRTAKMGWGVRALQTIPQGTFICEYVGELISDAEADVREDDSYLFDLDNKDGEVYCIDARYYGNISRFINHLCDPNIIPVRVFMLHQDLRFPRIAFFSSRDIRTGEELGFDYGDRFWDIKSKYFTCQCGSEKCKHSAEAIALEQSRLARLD
Procedure, shortened: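 Compounds (10-point 3-fold series, top 50 μM final, 2% DMSO) preincubated 30 min with 0.031 nM EHMT2 in 20 mM Bicine pH 7.5, 1 mM TCEP; reaction started with 3H-SAM and biotinylated H3 1-15 peptide, both at Km, run 60 min at room temperature. Flashplate capture; IC50 from four-parameter fit, triplicates.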

Compound | IC50 [µM]
CNc1cc(C)nc(Nc2ccc(OC)c(-c3cc(C4CC4)on3)c2)n1 [Compound 13] | 1 to 10
CNc1cc(C)nc(Nc2ccc(OC)c(-n3cc(C4CC4)cn3)c2)n1 [Compound 14, 2-N-[3-(4-cyclopropyl-1H-pyrazol-1-yl)-4-methoxyphenyl]-4-N,6-dimethylpyrimidine-2,4-diamine] | 1 to 10
CNc1cc(C)nc(Nc2ccc(OC)c(-n3cccn3)c2)n1 [Compound 15, 2-N-[4-methoxy-3-(1H-pyrazol-1-yl)phenyl]-4-N,6-dimethylpyrimidine-2,4-diamine; trifluoroacetic acid] | > 10
CNc1cc(C)nc(Nc2cnc(OC)c(-n3ncc4c3CCNC4)c2)n1 [Compound 19] | 1 to 10
CNc1cc(C)nc(Nc2ccc(OC)c(-c3nnc4n3CCNC4)c2)n1 [Compound 21] | > 10
CNc1cc(C)nc(Nc2ccc(OC)c(-n3cc(CN)cn3)c2)n1 [Compound 23, 2-N-[3-[4-(aminomethyl)-1H-pyrazol-1-yl]-4-methoxyphenyl]-4-N,6-dimethylpyrimidine-2,4-diamine; trifluoroacetic acid] | < 0.1
CNc1cc(C)nc(Nc2ccc(OC)c(-n3nccc3CN)c2)n1 [Compound 24] | 1 to 10
CNc1cc(C)nc(Nc2ccc(OC)c(-c3nnc4n3CCN(C)C4)c2)n1 [Compound 31] | > 10
CNc1cc(C)nc(Nc2ccc(OC)c(-c3cccc4[nH]ccc34)c2)n1 [Compound 33, 2-N-[3-(1H-indol-4-yl)-4-methoxyphenyl]-4-N,6-dimethylpyrimidine-2,4-diamine hydrochloride] | > 10
CNc1cc(C)nc(Nc2ccc(OC)c(-n3ncc4cnccc43)c2)n1 [Compound 35, 2-N-(4-methoxy-3-[1H-pyrazolo[4,3-c]pyridin-1-yl]phenyl)-4-N,6-dimethylpyrimidine-2,4-diamine; trifluoroacetic acid] | 1 to 10
CNc1cc(C)nc(Nc2ccc(OC)c(-n3ncc4ccncc43)c2)n1 [Compound 36] | > 10
CNc1cc(C)nc(Nc2ccc(OC)c(-c3cccc4[nH]ncc34)c2)n1 [Compound 37, 2-N-[3-(1H-indazol-4-yl)-4-methoxyphenyl]-4-N,6-dimethylpyrimidine-2,4-diamine; trifluoroacetic acid] | > 10
CNc1cc(C)nc(Nc2ccc(OC)c(-c3nc4cnccn4n3)c2)n1 [Compound 38] | > 10
CNc1cc(C)nc(Nc2ccc(OC)c(-c3c(C)nc4cnccn34)c2)n1 [Compound 39] | > 10
CCc1ccc(Nc2nc(C)cc(NC)n2)cc1C(=O)Nc1cccnc1 [Compound 244] | > 10

Next, values leading:

IC50 [µM] | Compound
> 10 | CNc1cc(C)nc(Nc2ccc(OC)c(-n3cc4c(n3)CNCC4)c2)n1 [Compound 22, 2-N-(4-methoxy-3-[2H,4H,5H,6H,7H-pyrazolo[3,4-c]pyridin-2-yl]phenyl)-4-N,6-dimethylpyrimidine-2,4-diamine hydrochloride]
> 10 | CNc1cc(C)nc(Nc2ccc(OC)c(-n3ncc4c3CCCC4)c2)n1 [Compound 26, 2-N-[4-methoxy-3-(4,5,6,7-tetrahydro-1H-indazol-1-yl)phenyl]-4-N,6-dimethylpyrimidine-2,4-diamine trifluoroacetic acid]
0.1 to 1 | CNc1nc(Nc2ccc(OC)c(-n3cc4c(n3)CCNC4)c2)nc(C)c1F [Compound 27, 5-fluoro-2-N-(4-methoxy-3-[2H,4H,5H,6H,7H-pyrazolo[4,3-c]pyridin-2-yl]phenyl)-4-N,6-dimethylpyrimidine-2,4-diamine trifluoroacetic acid]
1 to 10 | CNc1nc(Nc2ccc(OC)c(-n3ncc4c3CCNC4)c2)nc(C)c1F [Compound 28, 5-fluoro-2-N-(4-methoxy-3-[1H,4H,5H,6H,7H-pyrazolo[4,3-c]pyridin-1-yl]phenyl)-4-N,6-dimethylpyrimidine-2,4-diamine trifluoroacetic acid]
> 10 | CNc1cc(C)nc(Nc2ccc(OC)c(-c3c(C)nc4n3CCNC4)c2)n1 [Compound 30]
> 10 | CNc1cc(C)nc(Nc2ccc(OC)c(-n3ncc4c3CCCN4)c2)n1 [Compound 32]
